# Measurements as given in patent publication US10988477B2 (Merck Patent GmbH, priority 2018, dated 2021).
# Like-named read-outs stand apart in the source and are kept apart here.
# How the values were obtained:
# [1] = target: GCN2 kinase (Homo sapiens, UniProt Q9P2K8); experiment: GCN2 enzyme inhibition assay (Transcreener ADP2 fluorescence polarization); assay type: biochemical; details: 280 μM ATP
# In short: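 Inhibition of 4 nM GCN2 was measured with compound up to 8 μM final, ATP 280 μM and (RS)7 peptide 200 μM over a 1 h, 25 °C reaction. ADP FP readout; IC50 and Ki(app) calculated from percent inhibition.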
# [2] = target: intracellular GCN2 (phosphorylation of the GCN2 substrate eIF2α) (Homo sapiens, UniProt Q9P2K8); experiment: GCN2 cellular inhibition assay (AlphaScreen SureFire P-eIF2α Ser51, borrelidin-treated U2OS cells); assay type: cell-based
# Chain of intracellular GCN2 (phosphorylation of the GCN2 substrate eIF2α) (Q9P2K8 whole entry): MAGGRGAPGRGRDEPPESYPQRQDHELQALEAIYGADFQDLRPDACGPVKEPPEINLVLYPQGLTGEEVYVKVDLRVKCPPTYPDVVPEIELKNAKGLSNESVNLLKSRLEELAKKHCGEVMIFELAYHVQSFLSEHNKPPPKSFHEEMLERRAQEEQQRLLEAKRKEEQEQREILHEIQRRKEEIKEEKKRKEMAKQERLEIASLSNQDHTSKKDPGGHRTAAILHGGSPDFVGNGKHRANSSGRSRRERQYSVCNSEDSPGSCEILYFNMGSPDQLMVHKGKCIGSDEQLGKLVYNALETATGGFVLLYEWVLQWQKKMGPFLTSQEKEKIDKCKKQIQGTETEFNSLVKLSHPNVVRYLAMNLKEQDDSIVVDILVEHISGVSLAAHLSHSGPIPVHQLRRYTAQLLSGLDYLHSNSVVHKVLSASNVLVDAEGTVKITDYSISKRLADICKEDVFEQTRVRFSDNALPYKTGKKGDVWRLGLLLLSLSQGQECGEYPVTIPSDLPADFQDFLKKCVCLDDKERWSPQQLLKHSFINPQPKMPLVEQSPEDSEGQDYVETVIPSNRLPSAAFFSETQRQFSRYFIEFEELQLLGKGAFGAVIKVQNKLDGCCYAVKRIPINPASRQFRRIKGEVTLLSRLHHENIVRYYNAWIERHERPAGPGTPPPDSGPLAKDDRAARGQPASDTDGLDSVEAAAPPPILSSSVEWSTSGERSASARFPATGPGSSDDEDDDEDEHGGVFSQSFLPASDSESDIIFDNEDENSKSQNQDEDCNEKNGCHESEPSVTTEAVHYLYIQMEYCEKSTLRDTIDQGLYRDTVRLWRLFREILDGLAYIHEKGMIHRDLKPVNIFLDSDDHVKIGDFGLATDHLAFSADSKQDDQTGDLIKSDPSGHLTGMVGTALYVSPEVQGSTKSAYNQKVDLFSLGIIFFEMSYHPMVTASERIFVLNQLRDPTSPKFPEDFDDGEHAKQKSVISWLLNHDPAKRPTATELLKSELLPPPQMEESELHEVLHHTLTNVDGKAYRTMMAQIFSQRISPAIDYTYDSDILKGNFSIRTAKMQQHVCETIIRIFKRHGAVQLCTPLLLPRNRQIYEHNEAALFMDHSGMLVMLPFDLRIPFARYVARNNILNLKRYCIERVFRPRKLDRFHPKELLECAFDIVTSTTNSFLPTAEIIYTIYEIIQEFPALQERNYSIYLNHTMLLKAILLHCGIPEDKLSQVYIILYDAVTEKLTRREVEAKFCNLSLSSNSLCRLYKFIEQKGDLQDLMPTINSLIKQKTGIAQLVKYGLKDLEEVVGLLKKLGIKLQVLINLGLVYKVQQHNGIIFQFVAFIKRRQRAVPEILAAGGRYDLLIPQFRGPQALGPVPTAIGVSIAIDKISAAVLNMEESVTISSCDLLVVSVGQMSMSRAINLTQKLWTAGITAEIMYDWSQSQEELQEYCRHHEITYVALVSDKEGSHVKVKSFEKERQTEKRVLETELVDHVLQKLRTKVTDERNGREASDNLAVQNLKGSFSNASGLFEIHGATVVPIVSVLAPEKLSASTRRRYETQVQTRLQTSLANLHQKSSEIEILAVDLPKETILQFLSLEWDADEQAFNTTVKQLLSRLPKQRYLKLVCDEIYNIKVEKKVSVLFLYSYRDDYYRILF
# Procedure: Compounds can be screened for their ability to inhibit intracellular GCN2 using an AlphaScreen assay (Perkin Elmer) to detect phosphorylation of the GCN2 substrate eIF2α in borrelidin-treated cells. U2OS cells are plated at 5,000 cells per well in 384-well white polystyrene plates (Corning 3570) in McCoy's 5 A media (GIBCO 26600-023) supplemented with 10% foetal bovine serum (SAFC 12103C), Penicillin/Streptomycin solution diluted 1:100 (Sigma P0781), and 2 mM L-glutamine (Sigma G7513), and allowed to adhere overnight at 37° C. in 5% CO2. Compounds are then added to the cell media from a final concentration of 40 μM in 4-fold serial dilutions. Borrelidin (FluoroChem M01440) is immediately added to the wells to a final concentration of 10 μM and the cells are incubated for 1 h at 37° C. in 5% CO2. After 1 h of treatment with borrelidin, the media is removed, and the cells are lysed with lysis buffer (TGR BioSciences TGRLB) at ambient temperature.
# An AlphaScreen SureFire P-eIF2α (Ser51) assay kit (Perkin Elmer TGREIF2S) was used to measure levels of eIF2α phosphorylated on Serine 51. Anti-phosphorylated eIF2α Ser51 antibody-linked acceptor beads (TGR BioScience 6760617) are added to the cell homogenate (diluted 1:250 into a mixture of activation (TGR BioScience TGRAB) and reaction buffer (TGR BioScience TGREIF2S) prepared immediately before use). The plate is then incubated for 2 h at ambient temperature in the dark. Anti-eIF2α antibody-linked donor beads (TGR BioScience 6760617) were then added (diluted 1:100 in dilution buffer (TGR BioScience TGRDB) prepared immediately before use). The plate is then incubated overnight at ambient temperature in the dark.
# Plates are analyzed on an Alpha Technology-compatible PHERAstar FS plate reader (BMG Labtech Version 1.14) to quantify phosphorylated eIF2α Ser51 levels. The percentage inhibition of phosphorylated eIF2α is calculated by comparison to control wells stimulated with borrelidin alone.
# [3] = compounds of Formula II, 4 nM GCN2 kinase
# [4] = compounds of Formula II, biomarker assay, phosphorylated eIF2α Ser51 in borrelidin-treated U2OS cells
# [5] = compounds of Formula III, 4 nM GCN2 kinase
# [6] = compounds of Formula III, U2OS cells, 10 μM borrelidin, 1 h, read-out: GCN2 Biomarker (IC50)
# [7] = Enzyme activity for compounds of Formula IV, Ki(app), 25° C.
# [8] = compounds of Formula IV, biomarker assay, phosphorylated eIF2α Ser51 in borrelidin-treated U2OS cells
# Chain of GCN2 kinase (Q9P2K8 whole entry): as above
"Ki [1, 3]","IC50 [2, 4]",Structure (SMILES),also measured
10 to 1000 nM,0.5 to 5 µM,"NC(=O)C1CN(c2cc(-c3cnc4ccc(C(F)F)nn34)ncn2)CCO1 (stereo not drawn) [II-50, 4-(6-(6-(Difluoromethyl)imidazo[1,2-b]pyridazin-3-yl)pyrimidin-4-yl)morpholine-2-carboxamide]",–
10 to 1000 nM,0.5 to 5 µM,"CS(=O)(=O)C1CCCN(c2cc(-c3cnc4ccc(C(F)F)nn34)ncn2)C1 (single isomer, unassigned) [II-529, 6-(Difluoromethyl)-3-(6-(3-(methylsulfonyl)piperidin-1-yl)pyrimidin-4-yl)imidazo[1,2-b]pyridazine]",–
–,–,CC(=O)N1CCN(c2cc(-c3cnn4ccc(C(F)F)nc34)ccn2)CC1,"Ki [1, 5]: 10 to 1000 nM; IC50 [2, 6]: 0.5 to 5 µM"
10 to 1000 nM,0.5 to 5 µM,CC1CN(c2cc(-c3cnc4ccc(C#N)nn34)ncn2)C(C)C(c2cn[nH]c2)N1 (stereo not drawn) [II-693],–
< 10 nM,< 0.5 µM,"CC1C(CNS(C)(=O)=O)C(F)(F)CCN1c1cc(-c2cnc3ccc(C(F)F)nn23)ncn1 (stereo not drawn) [II-432, N-((1-(6-(6-(Difluoromethyl)imidazo[1,2-b]pyridazin-3-yl)pyrimidin-4-yl)-4,4-difluoro-2-methylpiperidin-3-yl)methyl)methanesulfonamide]",–
–,–,"Cc1cc(C2CCCN(c3ccnc(-c4cnc5cnc(C(F)F)cn45)n3)C2)n[nH]1 (stereo not drawn) [IV-112, 6-(Difluoromethyl)-3-(4-(3-(5-methyl-1H-pyrazol-3-yl)piperidin-1-yl)pyrimidin-2-yl)imidazo[1,2-a]pyrazine]","Ki [1, 7]: 100 to 1000 nM; IC50 [2, 8]: > 5 µM"
10 to 1000 nM,0.5 to 5 µM,"CC1(NS(C)(=O)=O)CCCN(c2cc(-c3cnc4ccc(C(F)F)nn34)ncn2)C1 (stereo not drawn) [II-412, N-(1-(6-(6-(Difluoromethyl)imidazo[1,2-b]pyridazin-3-yl)pyrimidin-4-yl)-3-methylpiperidin-3-yl)methanesulfonamide]",–
10 to 1000 nM,0.5 to 5 µM,"O=S(=O)(NCC1CCCN(c2cc(-c3cnc4ccc(C(F)F)nn34)ncn2)C1)C(F)(F)F (stereo not drawn) [II-379, N-((1-(6-(6-(Difluoromethyl)imidazo[1,2-b]pyridazin-3-yl)pyrimidin-4-yl)piperidin-3-yl)methyl)-1,1,1-trifluoromethanesulfonamide]",–
10 to 1000 nM,> 5 µM,"CC1CCC(CNS(C)(=O)=O)CN1c1cc(-c2cnc3ccc(C(F)F)nn23)ncn1 (stereo not drawn) [II-245, N-((1-(6-(6-(Difluoromethyl)imidazo[1,2-b]pyridazin-3-yl)pyrimidin-4-yl)-6-methylpiperidin-3-yl)methyl)methanesulfonamide]",–
> 1000 nM,> 5 µM,"O=C1COC2(CN1)COCCN(c1cc(-c3cnc4ccc(C(F)F)nn34)ncn1)C2 (stereo not drawn) [II-309, 11-(6-(6-(Difluoromethyl)imidazo[1,2-b]pyridazin-3-yl)pyrimidin-4-yl)-1,8-dioxa-4,11-diazaspiro[5.6]dodecan-3-one]",–
–,–,"OC[C@@H]1CCCN(c2ccnc(-c3cnc4cnc(C(F)F)cn34)n2)C1 [IV-138, (R)-(1-(2-(6-(Difluoromethyl)imidazo[1,2-a]pyrazin-3-yl)pyrimidin-4-yl)piperidin-3-yl)methanol]","Ki [1, 7]: 100 to 1000 nM; IC50 [2, 8]: > 5 µM"
10 to 1000 nM,0.5 to 5 µM,"FC(F)c1ccc2ncc(-c3ccnc(N4CCOC(c5cn[nH]c5)C4)c3)n2n1 (stereo not drawn) [II-108, 4-(4-(6-(Difluoromethyl)imidazo[1,2-b]pyridazin-3-yl)pyridin-2-yl)-2-(1H-pyrazol-4-yl)morpholine]",–
–,–,"Cc1nc(C2CCCN(c3ccnc(-c4cnc5cnc(Br)cn45)n3)C2)c[nH]1 (single isomer, unassigned) [IV-375, 6-Bromo-3-(4-(3-(2-methyl-1H-imidazol-4-yl)piperidin-1-yl)pyrimidin-2-yl)imidazo[1,2-a]pyrazine]","Ki [1, 7]: < 10 nM; IC50 [2, 8]: < 0.5 µM"
< 10 nM,< 0.5 µM,"CC1C(CNS(C)(=O)=O)N(C2CC2)CCN1c1cc(-c2cnc3ccc(C(F)F)nn23)ncn1 (single isomer, unassigned) [II-479, N-((1-Cyclopropyl-4-(6-(6-(difluoromethyl)imidazo[1,2-b]pyridazin-3-yl)pyrimidin-4-yl)-3-methylpiperazin-2-yl)methyl)methanesulfonamide]",–
< 10 nM,< 0.5 µM,"CS(=O)(=O)NCC1CCCN(c2cc(-c3cnc4ccc(C(F)F)nn34)ncn2)C1 (stereo not drawn) [II-59, N-((1-(6-(6-(Difluoromethyl)imidazo[1,2-b]pyridazin-3-yl)pyrimidin-4-yl)piperidin-3-yl)methyl)methanesulfonamide]",–
> 1000 nM,> 5 µM,"[O-][S+]1CCN(c2cc(-c3cnc4ccc(C(F)F)nn34)ncn2)CC1 [II-296, 4-(6-(6-(Difluoromethyl)imidazo[1,2-b]pyridazin-3-yl)pyrimidin-4-yl)thiomorpholine 1-oxide]",–
–,–,"CC1CN(c2ccnc(-c3cnc4cnc(C(F)(F)F)cn34)n2)C(C)C(c2c[nH]cn2)O1 (single isomer, unassigned) [IV-638, 2-(1H-Imidazol-4-yl)-3,6-dimethyl-4-(2-(6-(trifluoromethyl)imidazo[1,2-a]pyrazin-3-yl)pyrimidin-4-yl)morpholine]","Ki [1, 7]: 100 to 1000 nM; IC50 [2, 8]: > 5 µM"
–,–,CC(=O)N1CCN(c2cc(-c3cnn4ccc(C(F)(F)F)nc34)ccn2)CC1,"Ki [1, 5]: 10 to 1000 nM; IC50 [2, 6]: > 5 µM"
< 10 nM,< 0.5 µM,"CS(C)(=O)=NC1CCCN(c2cc(-c3cnc4ccc(C(F)F)nn34)ncn2)C1C(F)F (stereo not drawn) [II-700, [2-(Difluoromethyl)-1-[6-[6-(difluoromethyl)imidazo[1,2-b]pyridazin-3-yl]pyrimidin-4-yl]-3-piperidyl]imino-dimethyl-λ^6-sulfanone]",–
–,–,"FC(F)(F)c1cn2c(-c3nccc(N4CCC(c5cn[nH]c5)C4)n3)cnc2s1 (stereo not drawn) [Compound V-7, 5-[4-[3-(1H-Pyrazol-4-yl)pyrrolidin-1-yl]pyrimidin-2-yl]-2-(trifluoromethyl)imidazo[2,1-b]thiazole]","Ki ([1]; compounds of Formula V, 4 nM GCN2 kinase): 10 to 100 nM; IC50 ([2]; compounds of Formula V, U2OS cells, 10 μM borrelidin, 1 h, read-out: GCN2 Biomarker (IC50)): 0.5 to 5 µM"
10 to 1000 nM,> 5 µM,"C[C@@H]1CCCCN1c1cc(-c2cnc3ccc(C(F)F)nn23)ncn1 [II-354, (R)-6-(Difluoromethyl)-3-(6-(2-methylpiperidin-1-yl)pyrimidin-4-yl)imidazo[1,2-b]pyridazine]",–
10 to 1000 nM,> 5 µM,"NS(=O)(=O)N1CC2OCCN(c3cc(-c4cnc5ccc(C(F)F)nn45)ncn3)C2C1 (stereo not drawn) [II-332, 4-(6-(6-(Difluoromethyl)imidazo[1,2-b]pyridazin-3-yl)pyrimidin-4-yl)hexahydropyrrolo[3,4-b][1,4]oxazine-6(2H)-sulfonamide]",–
< 10 nM,0.5 to 5 µM,"CS(=O)(=O)NCC1CCCN(c2cc(-c3cnc4ccc(C(F)F)nn34)cc(Cl)n2)C1 (stereo not drawn) [II-61, N-((1-(6-Chloro-4-(6-(difluoromethyl)imidazo[1,2-b]pyridazin-3-yl)pyridin-2-yl)piperidin-3-yl)methyl)methanesulfonamide]",–
> 1000 nM,> 5 µM,"CC(=O)N1CCN(c2cc(-c3cnc4ccc(N5CCOCC5)nn34)ccn2)CC1 [II-738, 1-(4-(4-(6-morpholinoimidazo[1,2-b]pyridazin-3-yl)pyridin-2-yl)piperazin-1-yl)ethan-1-one]",–
< 10 nM,< 0.5 µM,"CC1CN(c2cc(-c3cnc4ccc(C(F)F)nn34)ncn2)CC(CNS(C)(=O)=O)O1 (stereo not drawn) [II-31, N-((4-(6-(6-(Difluoromethyl)imidazo[1,2-b]pyridazin-3-yl)pyrimidin-4-yl)-6-methylmorpholin-2-yl)methyl)methanesulfonamide]",–
10 to 1000 nM,0.5 to 5 µM,"CC1CC(C(=O)O)C(C)N(c2cc(-c3cnc4ccc(C(F)(F)F)nn34)ncn2)C1 (stereo not drawn) [II-721, 2,5-Dimethyl-1-[6-[6-(trifluoromethyl)imidazo[1,2-b]pyridazin-3-yl]pyrimidin-4-yl]piperidine-3-carboxylic acid]",–
–,–,"FC(F)c1cn2c(-c3nccc(N4CCOC(c5cn[nH]c5)C4)n3)cnc2cn1 (stereo not drawn) [IV-28, 4-(2-(6-(Difluoromethyl)imidazo[1,2-a]pyrazin-3-yl)pyrimidin-4-yl)-2-(1H-pyrazol-4-yl)morpholine]","Ki [1, 7]: 10 to 100 nM; IC50 [2, 8]: 0.5 to 5 µM"
